Data on one molecule can be found in patent US11414398B2, “Selective organic cation transporters inhibitors for the treatment of depressive disorders” (priority 2017, dated 2022).

Test [1] concerns the target T1, human OCT2 (Homo sapiens, UniProt O15244).
T1 construct: expressed in transfected cells; host or cells: COS cells
T1 sequence (O15244 1-555): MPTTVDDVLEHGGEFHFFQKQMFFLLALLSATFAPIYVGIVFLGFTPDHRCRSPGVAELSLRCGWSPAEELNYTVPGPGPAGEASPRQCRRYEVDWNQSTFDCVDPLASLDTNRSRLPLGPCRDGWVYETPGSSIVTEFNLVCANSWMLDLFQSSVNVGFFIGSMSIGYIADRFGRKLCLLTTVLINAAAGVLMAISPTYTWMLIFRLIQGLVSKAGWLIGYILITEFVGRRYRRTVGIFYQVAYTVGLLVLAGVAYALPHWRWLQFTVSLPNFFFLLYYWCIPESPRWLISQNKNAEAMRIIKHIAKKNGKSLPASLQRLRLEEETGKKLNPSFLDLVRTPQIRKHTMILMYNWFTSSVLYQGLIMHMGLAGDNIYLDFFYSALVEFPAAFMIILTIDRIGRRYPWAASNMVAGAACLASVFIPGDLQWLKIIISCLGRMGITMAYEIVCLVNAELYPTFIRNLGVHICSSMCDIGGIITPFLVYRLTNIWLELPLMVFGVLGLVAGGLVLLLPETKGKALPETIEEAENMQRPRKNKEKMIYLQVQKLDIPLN
In words: OCT inhibition in transfected cells ([3H]ASP+ uptake). The class given is cell-based. An excerpt:
Method. […] Tested concentrations: 1.10^−9; 3.10^−9; 1.10^−8; 3.10^−8; 1.10^−7; 3.10^−7; 1.10^−6; 3.10^−6 mol·L^−1.

The target in test [2] is T2, alpha 1D adrenoceptors (Homo sapiens, UniProt P25100).
T2 construct: host or cells: CHO cells
T2 sequence (P25100 1-572): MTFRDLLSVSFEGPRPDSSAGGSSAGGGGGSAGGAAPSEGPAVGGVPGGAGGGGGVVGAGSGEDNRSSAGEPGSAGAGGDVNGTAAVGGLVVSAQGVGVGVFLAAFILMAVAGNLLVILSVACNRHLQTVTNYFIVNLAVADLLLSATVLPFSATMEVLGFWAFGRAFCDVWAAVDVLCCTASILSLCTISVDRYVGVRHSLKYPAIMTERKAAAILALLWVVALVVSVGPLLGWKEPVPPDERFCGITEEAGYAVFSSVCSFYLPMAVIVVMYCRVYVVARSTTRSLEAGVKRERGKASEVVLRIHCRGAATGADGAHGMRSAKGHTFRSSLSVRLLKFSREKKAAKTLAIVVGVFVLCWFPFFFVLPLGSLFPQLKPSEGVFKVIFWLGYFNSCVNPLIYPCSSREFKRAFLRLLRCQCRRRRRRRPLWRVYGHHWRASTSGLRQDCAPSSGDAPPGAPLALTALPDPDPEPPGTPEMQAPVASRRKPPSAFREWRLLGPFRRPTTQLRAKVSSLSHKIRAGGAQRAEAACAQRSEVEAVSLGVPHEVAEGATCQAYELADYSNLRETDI
In words: Displacement of [3H]Prazosin binding in CHO cells (Eurofins). The note with it: 0.2 nM [3H]Prazosin, 60 min, 22° C., human recombinant, read-out: inhibition of binding of specific ligand. How it is done:
(§1) Method. The displacement by compound (II-1) of binding of selective ligands of alpha adrenergic receptors 1D and 2C (0.2 nM [^3H]Prazosin and 2 nM [^3H]RX 821002, respectively) was evaluated for 60 min at 22° C. in CHO cells expressing the human recombinant adrenoceptors (Eurofins).

In test [3] the target is T3, alpha 2C adrenoceptors (Homo sapiens, UniProt P18825).
T3 construct: host or cells: CHO cells
T3 sequence (P18825 1-462): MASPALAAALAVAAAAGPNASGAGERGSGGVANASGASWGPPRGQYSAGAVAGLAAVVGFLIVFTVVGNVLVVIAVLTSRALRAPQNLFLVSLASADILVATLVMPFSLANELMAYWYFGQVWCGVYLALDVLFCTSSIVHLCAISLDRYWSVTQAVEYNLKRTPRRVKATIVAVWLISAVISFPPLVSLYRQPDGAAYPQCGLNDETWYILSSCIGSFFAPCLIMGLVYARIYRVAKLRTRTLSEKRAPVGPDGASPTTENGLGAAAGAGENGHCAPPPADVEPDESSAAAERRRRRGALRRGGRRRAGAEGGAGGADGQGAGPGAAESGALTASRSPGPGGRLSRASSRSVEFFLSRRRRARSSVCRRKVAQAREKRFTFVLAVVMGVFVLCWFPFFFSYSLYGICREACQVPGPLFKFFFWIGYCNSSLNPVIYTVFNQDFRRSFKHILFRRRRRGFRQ
In words: Displacement of [3H]RX 821002 binding in CHO cells (Eurofins). The note with it: 2 nM [3H]RX 821002, 60 min, 22° C., human recombinant, read-out: inhibition of binding of specific ligand. As to the method:
as §1
Background: In a radioligand displacement assay an active substance lowers the binding of a labelled ligand.

In the case of `COc1ccc2c(c1)C=C/C(=C/c1cc[n+](C(C)C)c3ccccc13)N2C(C)C.[I-]` [II-1, (Z)-1-isopropyl-4-((1-isopropyl-6-methoxyquinolin-2(1H)-ylidene)methyl)quinolin-1-ium iodide], in test [1] (hOCT2 IC50 versus literature D24 value), the “IC50 less than that of D24 on human and rodent OCTs” value is reported as 3 to 4 fold. The IC50 – broadly, the concentration needed to halve the response being measured – in test [1] (uptake of [3H]ASP+ (5 μM) in COS cells transfected with human OCT2, 20 min, 37° C.) was determined as 82 nM. In addition, the inhibition (commonly the percentage by which the read-out fell short of the control) at 1 µM came out at 69% in test [2] and 66% in test [3].
